Converted amounts (≈) assume the structure as drawn.
Columns and labels:
[1] = test system: Staphylococcus epidermidis; experiment: In vitro broth dilution minimal inhibitory concentration (standard microdilution method); format: cell-based; settings: 24 h, Mueller-Hinton broth, 24-hour, read-out: Microdilution Broth MIC
Escherichia coli [2] = experiment: as above; format: cell-based; settings: Escherichia coli; Mueller-Hinton broth; 24-hour; read-out: Microdilution Broth MIC
Escherichia coli [3] = experiment: In vivo efficacy of orally administered compounds in mouse intraperitoneal infections; settings: 168 h; mouse i.p. Escherichia coli infection; oral; dosed at infection and 4 h post-infection; 7 days; read-out: ED50 (50 percent effective dose)
Procedure: (§1) Determinations of in vivo efficacy are performed by inoculating mice intraperitoneally with cultures of the infecting organism diluted to produce 90-100% mortality in control animals within twenty-four hours. The diluents used were trypticase soy broth for E. coli and 5% aqueous hog gastric mucin for Staphylococcus aureus infections. The compounds are dissolved or suspended in 0.25% aqueous Methocel® (Methocel®: Hydroxypropyl Methylcellulose E15 Premium, Dow Chemical Company) for oral administration or sterile distilled water containing 5% dimethylsulfoxide (Fisher Scientific Company, Fairlawn, N.J.) for subcutaneous administration. The mice are dosed at the time of infection and again at four hours post-infection. Mortality is recorded daily until test termination seven days post infection and the 50 percent effective dose, ED50, is calculated by the Reed-Muench method (Reed, L. G. and Muench, H., "A simple method of estimating fifty percent end points," American Journal of Hygiene, 27, 493-497 (1938).

Staphylococcus aureus [4] = experiment: as above; settings: Staphylococcus aureus, po, 168 h, mouse i.p. Staphylococcus aureus infection; oral; dosed at infection and 4 h post-infection; 7 days; read-out: ED50 (50 percent effective dose)
Procedure: as §1

Staphylococcus aureus [5] = experiment: In vivo efficacy of compounds administered subcutaneously in mouse intraperitoneal infections; settings: sc, 168 h; mouse i.p. Staphylococcus aureus infection; subcutaneous; dosed at infection and 4 h post-infection; 7 days; read-out: ED50 (50 percent effective dose)
Procedure: as §1

Escherichia coli [6] = experiment: as above; settings: sc, 168 h; mouse i.p. Escherichia coli infection; subcutaneous; dosed at infection and 4 h post-infection; 7 days; read-out: ED50 (50 percent effective dose)
Procedure: as §1

Row | SMILES | MIC [1] [µg/mL] | MIC (Escherichia coli [2]) [µg/mL] | ED50 (Escherichia coli [3]) [mg/kg] | ED50 (Staphylococcus aureus [4]) [mg/kg] | ED50 (Staphylococcus aureus [5]) [mg/kg] | ED50 (Escherichia coli [6]) [mg/kg]
1 | CS(=O)(=O)c1ccc(N2CC(CN)OC2=O)cc1 (single isomer, unassigned) [Example 11, (l)-5-Aminomethyl-3-[4-(methylsulfonyl)phenyl]-2-oxazolidinone] | > 100 | > 100 | 47.4 | 29.9 | 16.4 | 
2 | CS(=O)(=O)NCC1CN(c2ccc(S(C)(=O)=O)cc2)C(=O)O1 (single isomer, unassigned) [Example 25, (l)-N-[3-[4-(Methylsulfonyl)phenyl]-2-oxooxazolidin-5-ylmethyl]methanesulfonamide] | 100 (≈ 287 µM) | > 100 |  | > 360 | 83.6 | > 100
3 | CSc1ccc(N2CC(CNC(C)=O)OC2=O)cc1 (single isomer, unassigned) [Example 31, (l)-N-[3-[4-(methylthio)phenyl]-2-oxooxazolidin-5-ylmethyl]acetamide] | 3.9 (≈ 13.9 µM) | > 200 | 19.6 | 3.5 | < 4.4 | 
4 | COC(=O)NCC1CN(c2ccc(SC)cc2)C(=O)O1 (single isomer, unassigned) [Example 32, (l)-N-[3-[4-(methylthio)phenyl]-2-oxooxazolidin-5-ylmethyl]carbamic acid, methyl ester] | 12.5 (≈ 42.2 µM) | > 200 | 70.9 | 3.5 | < 4.4 | 
5 | CC(C)(C)C(=O)NCC1CN(c2ccc(S(C)(=O)=O)cc2)C(=O)O1 (stereo not shown) [Example 30] | 200 (≈ 564 µM) | > 200 |  | > 120 | 57.4 | > 120
6 | CCOC(=O)NCC1CN(c2ccc(SC)cc2)C(=O)O1 (stereo not shown) [Example 33] | 50 (≈ 161 µM) | > 200 | > 120 | 12.2 | 8.6 | 
7 | CC(=O)NCC1CN(c2ccc(C(F)(F)F)cc2)C(=O)O1 (stereo not shown) [Example 41] | 12.5 (≈ 41.4 µM) | > 200 | > 120 | 5.3 | 6.1 | 
8 | COC(=O)NCC1CN(c2ccc(Cl)cc2)C(=O)O1 (stereo not shown) [Example 84] | > 128 | > 128 | > 120 | 79.2 | 80.5 | 
9 | CSc1ccc(N2CC(CNC=O)OC2=O)cc1 (stereo not shown) [Example 89] | 25 (≈ 93.9 µM) | > 200 | > 138 | 11 |  | 
10 | C[S+]([O-])c1ccc(N2CC(CNC=O)OC2=O)cc1 (stereo not shown) [Example 90] | 25 (≈ 88.6 µM) | > 200 | 98.4 | 11.3 |  | 
11 | C=CC(=O)NCC1CN(c2ccc(C(C)=O)cc2)C(=O)O1 (stereo not shown) [Example 96] | 12.5 (≈ 43.4 µM) | > 50 | 83.2 | 7.9 |  | 

Further lines, with some results ahead:

Row | MIC [1] [µg/mL] | MIC (Escherichia coli [2]) [µg/mL] | SMILES | ED50 (Escherichia coli [3]) [mg/kg] | ED50 (Staphylococcus aureus [4]) [mg/kg] | ED50 (Staphylococcus aureus [5]) [mg/kg] | ED50 (Escherichia coli [6]) [mg/kg]
12 | 12.5 (≈ 34.7 µM) | > 200 | CC(=O)NCC1CN(c2ccc(I)cc2)C(=O)O1 (single isomer, unassigned) [Example 145, (l)-N-[3-(4-Iodophenyl)-2-oxo-5-oxazolidinylmethyl]acetamide] |  | 50 | 12.2 | > 120
13 | 200 (≈ 716 µM) | > 200 | CC(=O)NCC1CN(c2ccccc2[N+](=O)[O-])C(=O)O1 (single isomer, unassigned) [Example 148, (l)-N-[3-(2-Nitrophenyl)-2-oxooxazolidin-5-ylmethyl]acetamide] | > 120 | 21 | 21.5 | 
14 | 100 (≈ 401 µM) | > 200 | CC(=O)NCC1CN(c2ccc(N)cc2)C(=O)O1 (single isomer, unassigned) [Example 149, (l)-N-[3-(4-Aminophenyl)-2-oxooxazolidin-5-ylmethyl]acetamide] | > 120 | 20.2 | 10.3 | 
15 | > 200 | > 200 | CC(=O)NCC1CN(c2ccc(SC(C)=O)cc2)C(=O)O1 (single isomer, unassigned) [Example 152, (l)-N-[3-[4-(Acetylthio)phenyl]-2-oxooxazolidin-5-ylmethyl]acetamide] | 24.8 | 4.4 | < 2.5 | 
16 | > 200 | > 200 | COC(=O)NCC1CN(c2ccc(SC(C)=O)cc2)C(=O)O1 (single isomer, unassigned) [Example 155] | 82.2 | 3 | < 4.4 | 
17 | > 200 | > 200 | COC(=O)NCC1CN(c2ccc(S)cc2)C(=O)O1 (single isomer, unassigned) [Example 156, (l)-[3-(4-Mercaptophenyl)-2-oxooxazolidin-5-ylmethyl]carbamic acid, methyl ester] | > 120 | 4.5 | < 4.4 | 
18 | 4 (≈ 13.7 µM) | > 128 | CC(=O)NCC1CN(c2ccc(C(C)=NO)cc2)C(=O)O1 (single isomer, unassigned) [Example 159, (l)-N-[3-(4-Acetylphenyl)-2-oxooxazolidin-5-ylmethyl]acetamide Oxime] |  | 2.6 | 1.1 | 71.9
19 | 2 (≈ 6.79 µM) | > 128 | CSCc1ccc(N2CC(CNC(C)=O)OC2=O)cc1 (single isomer, unassigned) [Example 163, (l)-N-[3-[4-(Methylthiomethyl)phenyl]-2-oxo-5-oxazolidinylmethyl]acetamide] |  | 5.4 | 3.2 | 33.3
20 | 16 (≈ 51.6 µM) | > 128 | CC(=O)NCC1CN(c2ccc(C[S+](C)[O-])cc2)C(=O)O1 (single isomer, unassigned) [Example 164, (l)-N-[3-[4-(Methylsulfinylmethyl)phenyl]-2-oxo-5-oxazolidinylmethyl]acetamide] |  | 14 | 9.4 | > 120
21 | 12.5 | > 200 | CC(=O)NCC1CN(c2ccc(C(=O)C[S+](C)[O-])cc2)C(=O)O1 (single isomer, unassigned) [Example 165, (l)-N-[3-[4-(Methylsulfinyl)acetylphenyl]-2-oxo-5-oxazolidinylmethyl]acetamide dihydrate] |  | 16.4 | 8.4 | > 120
22 | 4 (≈ 13.8 µM) | > 128 | CCC(=O)NCC1CN(c2ccc(C(C)=O)cc2)C(=O)O1 (single isomer, unassigned) [Example 171, (l)-N-[3-(4-Acetylphenyl)-2-oxo-5-oxazolidinylmethyl]propanamide] |  | 3.3 | 1.6 | 21.6
23 | 16 (≈ 61.9 µM) | > 128 | C#Cc1ccc(N2CC(CNC(C)=O)OC2=O)cc1 (single isomer, unassigned) [Example 182, (l)-N-[3-(4-Ethynylphenyl)-2-oxo-5-oxazolidinylmethyl]acetamide] |  | 16 | 7 | > 120
24 | 3.1 (≈ 11.3 µM) | > 200 | C=C(C)c1ccc(N2CC(CNC(C)=O)OC2=O)cc1 (stereo not shown) [Example 97] |  | 4.9 | 9.5 | > 120
25 | 4 (≈ 15.3 µM) | > 128 | CC(=O)c1ccc(N2CC(CNC=O)OC2=O)cc1 (stereo not shown) [Example 173] |  | 6.9 | 4.5 | 79
26 | 1 (≈ 3.22 µM) | 32 (≈ 103 µM) | CC(=O)c1ccc(N2CC(CNC(=O)CCl)OC2=O)cc1 (stereo not shown) [Example 174] |  | 8.1 | 12.2 | > 120

From US4705799A, “Aminomethyl oxooxazolidinyl benzenes useful as antibacterial agents” (E. I. Du Pont de Nemours and Company, priority 1985, dated 1987)
